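Each compound was tested at five concentrations against cells in 96-well plates for 48 hours. TGI is the concentration that stops growth completely.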
Assays:
Assay in all cases: growth of human tumour cells (NCI), 48 h
A549 NSCLC = test system: A549 NSCLC
MOLT-4 leukemia = test system: MOLT-4 leukemia
OVCAR-8 ovarian = test system: OVCAR-8 ovarian
HCT-116 colon = test system: HCT-116 colon
NCI/ADR-RES ovarian = test system: NCI/ADR-RES ovarian
SN12C renal = test system: SN12C renal
COLO 205 colon = test system: COLO 205 colon
NCI-H23 lung = test system: NCI-H23 lung
OVCAR-5 ovarian = test system: OVCAR-5 ovarian
MCF7 breast = test system: MCF7 breast

Structure (SMILES): CC(/C=N\NC(=S)N1CCCCC1)=N/NC(=S)N1CCCCC1
- TGI (A549 NSCLC): 18.5 µM
- TGI (MOLT-4 leukemia): > 100 µM
- TGI (OVCAR-8 ovarian): 16.1 µM
- TGI (HCT-116 colon): 6.19 µM
- TGI (NCI/ADR-RES ovarian): 6.9 µM
- TGI (SN12C renal): 10.8 µM
- TGI (COLO 205 colon): 5.85 µM
- TGI (NCI-H23 lung): 19.2 µM
- TGI (OVCAR-5 ovarian): 21.8 µM
- TGI (MCF7 breast): > 45.8 µM

Structure (SMILES): S=c1[nH]n2c(COc3cccc(OCc4nnc5sc(=S)[nH]n45)c3)nnc2s1
- TGI (A549 NSCLC): > 100 µM
- TGI (MOLT-4 leukemia): > 100 µM
- TGI (OVCAR-8 ovarian): > 100 µM
- TGI (HCT-116 colon): > 100 µM
- TGI (NCI/ADR-RES ovarian): > 100 µM
- TGI (SN12C renal): > 100 µM
- TGI (COLO 205 colon): > 100 µM
- TGI (NCI-H23 lung): > 100 µM
- TGI (OVCAR-5 ovarian): > 100 µM
- TGI (MCF7 breast): > 100 µM

Structure (SMILES): O=C(O)CCN(CCC(=O)O)c1ccc(/C=C2\SC(=S)NC2=O)cc1
- TGI (A549 NSCLC): > 100 µM
- TGI (MOLT-4 leukemia): > 100 µM
- TGI (OVCAR-8 ovarian): > 100 µM
- TGI (HCT-116 colon): > 100 µM
- TGI (NCI/ADR-RES ovarian): > 100 µM
- TGI (SN12C renal): > 100 µM
- TGI (COLO 205 colon): > 100 µM
- TGI (NCI-H23 lung): > 100 µM
- TGI (OVCAR-5 ovarian): > 100 µM
- TGI (MCF7 breast): > 100 µM

Structure (SMILES): Cc1c(O)c(C)c2c(C)cn(C(=O)C(C)(C)C)c2c1C
- TGI (A549 NSCLC): 64.7 µM
- TGI (MOLT-4 leukemia): 55.2 µM
- TGI (OVCAR-8 ovarian): 34.7 µM
- TGI (HCT-116 colon): 45.3 µM
- TGI (NCI/ADR-RES ovarian): > 100 µM
- TGI (SN12C renal): 31.8 µM
- TGI (COLO 205 colon): 30.3 µM
- TGI (NCI-H23 lung): 41.6 µM
- TGI (OVCAR-5 ovarian): 83 µM
- TGI (MCF7 breast): 20.3 µM

Structure (SMILES): O=C(NS(=O)(=O)OCC(Cl)(Cl)Cl)SCCC(F)(F)C(F)(F)C(F)(F)C(F)(F)C(F)(F)C(F)(F)F
- TGI (A549 NSCLC): 94.6 µM
- TGI (MOLT-4 leukemia): 80 µM
- TGI (OVCAR-8 ovarian): > 100 µM
- TGI (HCT-116 colon): 40.8 µM
- TGI (NCI/ADR-RES ovarian): 48.1 µM
- TGI (SN12C renal): > 100 µM
- TGI (COLO 205 colon): 33.5 µM
- TGI (NCI-H23 lung): 40.6 µM
- TGI (OVCAR-5 ovarian): 34.6 µM
- TGI (MCF7 breast): 40.6 µM

Structure (SMILES): Cc1ccsc1/C=N/Nc1ccc2ccccc2n1
- TGI (A549 NSCLC): > 100 µM
- TGI (MOLT-4 leukemia): > 100 µM
- TGI (OVCAR-8 ovarian): > 100 µM
- TGI (HCT-116 colon): > 100 µM
- TGI (NCI/ADR-RES ovarian): > 100 µM
- TGI (SN12C renal): > 100 µM
- TGI (COLO 205 colon): > 100 µM
- TGI (NCI-H23 lung): > 100 µM
- TGI (OVCAR-5 ovarian): > 100 µM
- TGI (MCF7 breast): 32.3 µM

Structure (SMILES): N#C/C(N)=C(\C#N)NC=NCc1ccccc1
- TGI (A549 NSCLC): > 100 µM
- TGI (MOLT-4 leukemia): > 100 µM
- TGI (OVCAR-8 ovarian): > 100 µM
- TGI (HCT-116 colon): > 100 µM
- TGI (NCI/ADR-RES ovarian): > 100 µM
- TGI (SN12C renal): > 100 µM
- TGI (COLO 205 colon): > 100 µM
- TGI (NCI-H23 lung): > 100 µM
- TGI (OVCAR-5 ovarian): > 100 µM
- TGI (MCF7 breast): > 100 µM

Structure (SMILES): COc1ccc(C(=O)/C=C/c2ccncc2)cc1OC
- TGI (A549 NSCLC): 29.3 µM
- TGI (MOLT-4 leukemia): 86.7 µM
- TGI (OVCAR-8 ovarian): 28.6 µM
- TGI (HCT-116 colon): 18.9 µM
- TGI (NCI/ADR-RES ovarian): 42.7 µM
- TGI (SN12C renal): 29.2 µM
- TGI (COLO 205 colon): 29.1 µM
- TGI (NCI-H23 lung): 22.7 µM
- TGI (OVCAR-5 ovarian): 27.3 µM
- TGI (MCF7 breast): 13.4 µM

Structure (SMILES): COc1ccc(N2C(=O)CS(=O)(=O)C2c2cccc(Oc3ccccc3)c2)cc1 (stereo not given)
- TGI (A549 NSCLC): > 100 µM
- TGI (MOLT-4 leukemia): 21.9 µM
- TGI (OVCAR-8 ovarian): 95.7 µM
- TGI (HCT-116 colon): 5.88 µM
- TGI (NCI/ADR-RES ovarian): 15.4 µM
- TGI (SN12C renal): 21.4 µM
- TGI (COLO 205 colon): 11.4 µM
- TGI (NCI-H23 lung): > 100 µM
- TGI (OVCAR-5 ovarian): > 100 µM
- TGI (MCF7 breast): 4.72 µM

Structure (SMILES): O=S(=O)(O)c1ccc(N=Nc2ccc(N=Nc3c(O)ccc4ccccc34)cc2)cc1
- TGI (A549 NSCLC): > 100 µM
- TGI (MOLT-4 leukemia): > 100 µM
- TGI (OVCAR-8 ovarian): > 100 µM
- TGI (HCT-116 colon): > 100 µM
- TGI (NCI/ADR-RES ovarian): > 100 µM
- TGI (SN12C renal): > 100 µM
- TGI (COLO 205 colon): > 100 µM
- TGI (NCI-H23 lung): > 100 µM
- TGI (OVCAR-5 ovarian): > 100 µM
- TGI (MCF7 breast): > 100 µM

Structure (SMILES): COc1ccc(C(OCC2OC(n3cc(C)c(=O)[nH]c3=O)CC2n2cc(Cn3cc(Br)c(=O)[nH]c3=O)nn2)(c2ccccc2)c2ccccc2)cc1 (stereo not given)
- TGI (A549 NSCLC): > 100 µM
- TGI (MOLT-4 leukemia): > 100 µM
- TGI (OVCAR-8 ovarian): > 100 µM
- TGI (HCT-116 colon): > 100 µM
- TGI (NCI/ADR-RES ovarian): > 100 µM
- TGI (SN12C renal): > 100 µM
- TGI (COLO 205 colon): > 100 µM
- TGI (NCI-H23 lung): > 100 µM
- TGI (OVCAR-5 ovarian): > 100 µM
- TGI (MCF7 breast): > 100 µM

Structure (SMILES): Nc1nc2c(ncn2Cc2ccc(CO)cc2)c(=O)[nH]1
- TGI (A549 NSCLC): > 100 µM
- TGI (MOLT-4 leukemia): > 100 µM
- TGI (OVCAR-8 ovarian): > 100 µM
- TGI (HCT-116 colon): > 100 µM
- TGI (NCI/ADR-RES ovarian): > 100 µM
- TGI (SN12C renal): > 100 µM
- TGI (COLO 205 colon): > 100 µM
- TGI (NCI-H23 lung): > 100 µM
- TGI (OVCAR-5 ovarian): > 100 µM
- TGI (MCF7 breast): > 100 µM

Structure (SMILES): C[C@@H]1CCC2[C@@H](C)[C@@H](OCCO[C@H]3OC4O[C@@]5(C)CCC6[C@H](C)CCC([C@H]3C)[C@@]46OO5)OC3O[C@@]4(C)CCC1[C@]32OO4 (stereo not given in full)
- TGI (A549 NSCLC): > 100 µM
- TGI (MOLT-4 leukemia): > 100 µM
- TGI (OVCAR-8 ovarian): > 78.2 µM
- TGI (HCT-116 colon): > 100 µM
- TGI (NCI/ADR-RES ovarian): 3.14 µM
- TGI (SN12C renal): > 100 µM
- TGI (COLO 205 colon): 0.304 µM
- TGI (NCI-H23 lung): 68.9 µM
- TGI (OVCAR-5 ovarian): > 100 µM
- TGI (MCF7 breast): > 42.3 µM

Structure (SMILES): CC12CC(C#N)(C#N)C(C#N)(CO1)C(=N)O2 (stereo not given)
- TGI (A549 NSCLC): > 100 µM
- TGI (MOLT-4 leukemia): > 100 µM
- TGI (OVCAR-8 ovarian): > 100 µM
- TGI (HCT-116 colon): > 100 µM
- TGI (NCI/ADR-RES ovarian): > 100 µM
- TGI (SN12C renal): > 100 µM
- TGI (COLO 205 colon): > 100 µM
- TGI (NCI-H23 lung): > 100 µM
- TGI (OVCAR-5 ovarian): > 100 µM
- TGI (MCF7 breast): > 100 µM

Structure (SMILES): O=[N+]([O-])c1cc2c(c3nonc13)OCCCCO2
- TGI (A549 NSCLC): 33.5 µM
- TGI (MOLT-4 leukemia): 9.79 µM
- TGI (OVCAR-8 ovarian): 14.2 µM
- TGI (HCT-116 colon): 3.46 µM
- TGI (NCI/ADR-RES ovarian): 62.6 µM
- TGI (SN12C renal): 16.1 µM
- TGI (COLO 205 colon): 17.9 µM
- TGI (NCI-H23 lung): 25.2 µM
- TGI (OVCAR-5 ovarian): 26.2 µM
- TGI (MCF7 breast): 24.2 µM

Structure (SMILES): O=C(NCCCN(CCCCN(CCCNC(=O)C(F)(F)F)CCCc1ccccc1)CCCc1ccccc1)C(F)(F)F
- TGI (A549 NSCLC): 3.73 µM
- TGI (MOLT-4 leukemia): 4.48 µM
- TGI (OVCAR-8 ovarian): 3.77 µM
- TGI (HCT-116 colon): 5.9 µM
- TGI (NCI/ADR-RES ovarian): 15.5 µM
- TGI (SN12C renal): 5.8 µM
- TGI (COLO 205 colon): 3.11 µM
- TGI (NCI-H23 lung): 25.3 µM
- TGI (OVCAR-5 ovarian): 25.9 µM
- TGI (MCF7 breast): 3.05 µM

Structure (SMILES): CCOC(=O)C1=C(N)Oc2ccc(Br)cc2C1C(C#N)C(=O)OCC (stereo not given)
- TGI (A549 NSCLC): 70.5 µM
- TGI (MOLT-4 leukemia): 90.9 µM
- TGI (OVCAR-8 ovarian): 45.1 µM
- TGI (HCT-116 colon): 42.2 µM
- TGI (NCI/ADR-RES ovarian): 41 µM
- TGI (SN12C renal): > 100 µM
- TGI (COLO 205 colon): 42.3 µM
- TGI (NCI-H23 lung): 47.3 µM
- TGI (OVCAR-5 ovarian): 66.3 µM
- TGI (MCF7 breast): 89.4 µM
